Data set [1] concerns the target T1, α1A AR (Homo sapiens, UniProt P35348).
T1 sequence (P35348 1-466): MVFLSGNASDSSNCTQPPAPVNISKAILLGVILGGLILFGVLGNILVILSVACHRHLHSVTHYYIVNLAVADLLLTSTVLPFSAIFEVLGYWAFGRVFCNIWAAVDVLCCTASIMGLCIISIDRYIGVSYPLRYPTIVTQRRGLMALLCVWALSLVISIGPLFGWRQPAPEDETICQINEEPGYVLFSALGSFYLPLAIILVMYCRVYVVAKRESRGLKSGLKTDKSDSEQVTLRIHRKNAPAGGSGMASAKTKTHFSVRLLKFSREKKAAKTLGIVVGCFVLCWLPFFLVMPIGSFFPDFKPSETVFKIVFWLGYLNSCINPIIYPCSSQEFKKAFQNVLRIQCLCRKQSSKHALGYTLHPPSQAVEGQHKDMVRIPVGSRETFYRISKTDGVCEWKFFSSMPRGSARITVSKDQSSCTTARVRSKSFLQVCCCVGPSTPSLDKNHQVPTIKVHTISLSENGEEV
Description: Ca2+ FLIPR assay in human adrenergic Alpha1A CHO-K1 cell line (Test 1). It counts as cell-based. To be noted: read-out: CHO cells EC50 α1A AR.
Description: Compounds acting as agonists induce a transient increase of intracellular calcium. This was recorded on the FLIPR system. A measurement of the signal baseline was first recorded every second for 2 minutes before the injection of the compounds. […] Low controls (unstimulated cells) were determined with the addition of 5 μL of assay buffer.

The nature of data set [2]: Comparative solubilities in H2O with pH adjustment. It counts as physicochemical. As for the experimental part: The relative solubilities of the free base form and the acetate and glycolate salt forms of Compound A were analysed and the results are show in the table below. Solutions were titrated with addition of HCl or NaOH for pH adjustment. The improved aqueous solubilities of the acetate and glycolate salt forms relative to the free base form of Compound A make the acetate and glycolate salts of Compound A more suitable for subcutaneous injection or infusion.

Data set [3] concerns isolated rabbit sino-atrial nodes. In words: Sino-atrial node beating rate in isolated rabbit right atrium.
Description: New Zealand white female rabbits were killed by exsanguination after a deep anesthesia using a mixture of ketamine/xylazine, i.v. The heart was quickly removed and placed in Tyrode's solution. […] The right atrium was separated from the rest of the heart. The preparations were mounted in a tissue bath and kept at 37±0.5° C. for at least one hour stabilization. Action potentials (AP) were intracellularly recorded with a standard glass microelectrode filled with 3 M KCl, connected to a high input impedance-neutralizing amplifier (VF-180 microelectrode amplifier, Bio-Logic). […] After one hour of stabilization, compounds were added to the Tyrode's solution at the increasing concentrations, each concentration being maintained for 30 minutes. There was no wash-out between two concentrations. Electrophysiological measurements were made by analyzing action potentials during the experimental protocol at the end of the 30 minute perfusion period. The SA spontaneous frequency was evaluated by counting the number of beats every 10 seconds to express the results in number of beats per minute (bpm). Data were expressed as mean±SEM.
Data set [4] deals with isolated Langendorff perfused rabbit hearts. In words: Automaticity in isolated Langendorff perfused rabbit hearts.
Data set [5] concerns Wistar Han (W-H) IGS rats. In words: Heart rate in vivo in rats after s.c. bolus. Also noted: species or system rat. The conditions noted are these: up to 0.3 mg/kg, compared to formoterol. From the text:
Wistar Han (W-H) IGS (International Genetic Standard) rats (Crl:WI(Han)) were purchased from Charles River Laboratories. Femoral arterial and venous catheters were chronically implanted and exteriorized through a spring tether-swivel system and housed in specialized cages. Arterial catheter was connected to a pressure transducer to continuously measure pulse pressure, mean arterial pressure and heart rate, which was derived from the blood pressure signal, via a digital data acquisition system. Compounds were administered via s.c catheter implanted through the skin buttun. Values are expressed as means±SEM (n=3).

Data set [6] has as its system Rhesus monkeys. In words: Heart rate in vivo in rhesus monkeys after single s.c. administration. The conditions noted are these: s.c. bolus, up to 0.03 mg/kg; compared to formoterol. Also noted: species or system rhesus monkey. As for the experimental part:
Rhesus monkeys, 24 females with body weight around 4 to 8 kg, were randomized into 4 groups of n=6. The animals were restrained on a chair up to 4 hours after single subcutaneous administration of compounds, and then returned to their pens. Heart rates were measured using a Surgivet V3304 device. Values are expressed as means±SEM (n=6).

Data set [7] has as its target T2, Serotonin 5-HT2C (Homo sapiens, UniProt P28335).
T2 construct: expressed in transfected cells; host or cells: CHO-K1 cells coexpressing mitochondrial apoaequorin and Gα16
Description: Aequorin agonist assay in CHO-K1 cells expressing recombinant Serotonin 5-HT2C and Gα16. It counts as cell-based.
Description: CHO-K1 cells coexpressing mitochondrial apoaequorin, recombinant Serotonin 5-HT2Cne and the promiscuous G protein Gα16, grown to mid-log phase in culture media without antibiotics were detached with PBS-EDTA, centrifuged and resuspended in assay buffer (DMEM/HAM's F12 with HEPES, without phenol red+0.1% BSA protease free) at a concentration of 1×10^6 cells/ml. Cells were incubated at room temperature for at least 4 h with coelenterazine h. […] For agonist testing, 50 μL of cell suspension were mixed with 50 μL of test or reference agonist in a 96-well plate. The resulting emission of light is recorded using Hamamatsu Functional Drug Screening System 6000 (FDSS 6000) luminometer. Agonist activity of test compound was expressed as a percentage of the activity of the reference agonist at its EC100 concentration.

Data set [8] addresses β2 AR (Homo sapiens, UniProt P07550). Description: cAMP response in CHO cells stably transfected with human β2 adrenoceptor (Test 1).

SMILES strings stand for the structures.

From patent US9913828B2, “Benzothiazolone compound” (Novartis AG, priority 2011, dated 2018) come the findings set out here.

Usually EC50 stands for the concentration needed to bring the measured effect to its halfway point.

T2 sequence (P28335 33-458): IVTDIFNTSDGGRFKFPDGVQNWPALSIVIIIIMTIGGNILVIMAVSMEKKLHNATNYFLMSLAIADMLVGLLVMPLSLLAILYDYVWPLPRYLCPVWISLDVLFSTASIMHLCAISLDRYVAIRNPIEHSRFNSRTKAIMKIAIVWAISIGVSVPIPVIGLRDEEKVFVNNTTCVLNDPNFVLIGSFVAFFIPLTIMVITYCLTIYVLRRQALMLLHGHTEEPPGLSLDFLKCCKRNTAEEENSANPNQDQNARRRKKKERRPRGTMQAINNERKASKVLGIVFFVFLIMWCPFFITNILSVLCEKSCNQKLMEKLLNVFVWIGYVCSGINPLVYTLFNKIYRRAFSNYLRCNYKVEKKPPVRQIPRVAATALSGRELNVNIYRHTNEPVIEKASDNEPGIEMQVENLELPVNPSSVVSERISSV
β2 AR, sequence (P07550 whole entry): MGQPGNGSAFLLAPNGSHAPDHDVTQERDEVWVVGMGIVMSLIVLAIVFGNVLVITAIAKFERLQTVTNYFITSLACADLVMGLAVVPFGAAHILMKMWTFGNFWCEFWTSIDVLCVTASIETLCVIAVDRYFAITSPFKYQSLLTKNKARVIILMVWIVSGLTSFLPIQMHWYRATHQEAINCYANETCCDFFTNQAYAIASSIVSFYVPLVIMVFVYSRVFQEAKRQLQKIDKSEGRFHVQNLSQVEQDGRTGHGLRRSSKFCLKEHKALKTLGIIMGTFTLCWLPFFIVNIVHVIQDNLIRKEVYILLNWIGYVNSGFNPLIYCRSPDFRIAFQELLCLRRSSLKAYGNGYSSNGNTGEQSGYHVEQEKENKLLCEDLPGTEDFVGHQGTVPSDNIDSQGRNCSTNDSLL

As for `CCCCOc1ccc(CC(C)(C)NC[C@H](O)c2cc(O)cc3[nH]c(=O)sc23)cc1.O=C(O)CO` [Compound A glycolate salt, (R)-7-(2-(1-(4-butoxyphenyl)-2-methylpropan-2-ylamino)-1-hydroxyethyl)-5-hydroxybenzo[d]thiazol-2(3H)-one glycolate salt], the melting point is ~ 188 °C.
For `CCCCOc1ccc(CC(C)(C)NC[C@H](O)c2cc(O)cc3[nH]c(=O)sc23)cc1` [Compound A, (R)-7-(2-(1-(4-butoxyphenyl)-2-methylpropan-2-ylamino)-1-hydroxyethyl)-5-hydroxybenzo[d]thiazol-2(3H)-one], the figures for the EC50 in [1] and in data set [8] were more than 10 µM and less than 0.01 µM, respectively. Also, the “Compound A free base solubility in H2O, Conc” value in data set [2] (pH 7.3) and in data set [2] (pH 7.8) was less than 10 µg/mL in each case. The “Sino-Atrial node beating rate, maximum increase (n = 6)” value in data set [3] is given as “+6.2%”. Besides, the “direct effects on the pacemaker activity” value in [4] (compared to Formoterol) is reported as “less direct effects”. Moreover, the “Automaticity, maximum increase (n = 3)” value in data set [4] (isolated rabbit heart) is “+17%”. For the same compound, in data set [5], the “heart rate change in rats” value is “less heart rate increases”. Further, in [6], the “heart rate change in rhesus monkeys” value is reported as “less heart rate increase”. In data set [7], the “fold less active on 5-HT2C when compared to the racemate or the (S) enantiomer” value was “over 10 fold”. Besides, in data set [7] (5-HT2C EC50 versus β2 AR EC50), the “fold less active on 5-HT2C when compared to β2 AR agonist activity” value came to 50 fold.
